Assays:
Test in all cases: Fluorometric Ub-AMC Hydrolysis Assay
Conditions in all cases: pH 7.5; 25 °C
[1] = biological target: T1, Ubiquitin carboxyl-terminal hydrolase 2 (Homo sapiens, UniProt O75604)
T1 sequence (O75604 whole entry): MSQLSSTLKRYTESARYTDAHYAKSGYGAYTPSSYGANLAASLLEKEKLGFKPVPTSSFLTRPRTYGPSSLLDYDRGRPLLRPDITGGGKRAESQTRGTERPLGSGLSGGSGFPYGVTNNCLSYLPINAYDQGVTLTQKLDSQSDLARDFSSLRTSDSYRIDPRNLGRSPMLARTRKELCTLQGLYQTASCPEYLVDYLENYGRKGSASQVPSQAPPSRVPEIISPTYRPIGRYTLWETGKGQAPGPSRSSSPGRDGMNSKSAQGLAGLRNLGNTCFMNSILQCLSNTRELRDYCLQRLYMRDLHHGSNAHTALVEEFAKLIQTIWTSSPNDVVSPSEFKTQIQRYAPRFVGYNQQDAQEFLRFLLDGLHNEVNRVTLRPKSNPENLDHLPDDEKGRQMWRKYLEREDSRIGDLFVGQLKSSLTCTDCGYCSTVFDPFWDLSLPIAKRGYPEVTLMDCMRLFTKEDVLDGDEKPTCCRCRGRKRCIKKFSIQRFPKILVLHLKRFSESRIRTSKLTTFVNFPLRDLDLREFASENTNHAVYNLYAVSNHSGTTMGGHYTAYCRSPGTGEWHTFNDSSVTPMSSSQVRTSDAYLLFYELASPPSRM
Protocol: (§1) 2 nM UCHL1, UCHL5, USP15, USP2, or 2 pM UCHL3 were incubated with increasing concentrations of inhibitor in assay buffer for 5 min at room temperature. To initiate the reaction, 1 uM Ub-AMC was added and the fluorescence signal was detected for 60 s with a 380 nm excitation and 460 nm emission filter set.

[2] = biological target: T2, Ubiquitin carboxyl-terminal hydrolase isozyme L3 (Homo sapiens, UniProt P15374)
T2 sequence (P15374 whole entry): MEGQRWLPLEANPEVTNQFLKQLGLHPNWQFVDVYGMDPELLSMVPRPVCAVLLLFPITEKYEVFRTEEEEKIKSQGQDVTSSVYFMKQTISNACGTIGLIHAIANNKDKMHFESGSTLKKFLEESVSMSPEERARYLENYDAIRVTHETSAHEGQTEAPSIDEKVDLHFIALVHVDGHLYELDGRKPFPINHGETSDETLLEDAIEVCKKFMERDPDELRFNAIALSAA
Protocol: as §1

[3] = biological target: T3, Ubiquitin carboxyl-terminal hydrolase isozyme L5 (Homo sapiens, UniProt Q9Y5K5)
T3 sequence (Q9Y5K5 whole entry): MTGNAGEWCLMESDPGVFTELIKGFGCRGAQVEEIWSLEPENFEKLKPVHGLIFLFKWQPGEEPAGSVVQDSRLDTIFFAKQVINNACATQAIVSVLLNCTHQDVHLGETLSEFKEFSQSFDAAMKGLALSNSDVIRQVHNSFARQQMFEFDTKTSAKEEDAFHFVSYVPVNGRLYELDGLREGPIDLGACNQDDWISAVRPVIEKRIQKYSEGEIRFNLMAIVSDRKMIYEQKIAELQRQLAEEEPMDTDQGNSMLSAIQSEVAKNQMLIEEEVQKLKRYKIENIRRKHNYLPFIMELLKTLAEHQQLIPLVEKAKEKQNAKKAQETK
Protocol: as §1

[4] = biological target: T4, Ubiquitin carboxyl-terminal hydrolase 15 (Homo sapiens, UniProt Q9Y4E8)
T4 sequence (Q9Y4E8 whole entry): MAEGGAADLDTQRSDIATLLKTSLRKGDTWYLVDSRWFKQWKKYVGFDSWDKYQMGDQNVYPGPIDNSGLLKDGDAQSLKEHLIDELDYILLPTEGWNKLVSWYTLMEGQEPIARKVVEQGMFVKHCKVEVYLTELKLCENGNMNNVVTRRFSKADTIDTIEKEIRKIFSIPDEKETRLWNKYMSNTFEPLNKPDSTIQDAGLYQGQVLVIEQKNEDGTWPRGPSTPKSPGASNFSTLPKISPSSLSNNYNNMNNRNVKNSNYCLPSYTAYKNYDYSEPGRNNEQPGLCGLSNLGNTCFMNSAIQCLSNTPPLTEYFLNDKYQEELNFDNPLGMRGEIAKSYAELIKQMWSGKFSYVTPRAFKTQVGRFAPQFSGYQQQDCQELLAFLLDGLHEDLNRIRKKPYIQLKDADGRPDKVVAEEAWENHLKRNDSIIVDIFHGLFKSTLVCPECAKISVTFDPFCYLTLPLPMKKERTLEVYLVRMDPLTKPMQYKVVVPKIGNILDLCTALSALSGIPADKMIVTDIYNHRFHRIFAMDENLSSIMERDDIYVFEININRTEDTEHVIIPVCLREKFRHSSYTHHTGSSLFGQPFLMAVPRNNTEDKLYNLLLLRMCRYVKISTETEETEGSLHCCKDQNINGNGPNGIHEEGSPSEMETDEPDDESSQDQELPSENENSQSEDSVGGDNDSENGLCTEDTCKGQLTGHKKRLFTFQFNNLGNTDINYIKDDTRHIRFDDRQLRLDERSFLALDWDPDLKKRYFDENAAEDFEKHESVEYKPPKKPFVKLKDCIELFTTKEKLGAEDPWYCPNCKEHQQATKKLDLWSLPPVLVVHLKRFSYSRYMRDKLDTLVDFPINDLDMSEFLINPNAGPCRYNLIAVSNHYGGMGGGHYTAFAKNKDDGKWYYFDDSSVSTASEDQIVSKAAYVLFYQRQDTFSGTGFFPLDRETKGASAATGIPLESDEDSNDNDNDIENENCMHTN
Protocol: as §1

[5] = biological target: T5, Ubiquitin carboxyl-terminal hydrolase isozyme L1 (Homo sapiens, UniProt P09936)
T5 sequence (P09936 whole entry): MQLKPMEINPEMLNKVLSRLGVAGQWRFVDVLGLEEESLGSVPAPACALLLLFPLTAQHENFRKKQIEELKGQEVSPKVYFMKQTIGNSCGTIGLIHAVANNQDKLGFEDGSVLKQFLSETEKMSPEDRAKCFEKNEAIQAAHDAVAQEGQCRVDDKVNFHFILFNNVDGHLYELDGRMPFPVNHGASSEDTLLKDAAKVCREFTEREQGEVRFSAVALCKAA
Protocol: as §1

SMILES	IC50 [1] [µM]	IC50 [2] [µM]	IC50 [3] [µM]	IC50 [4] [µM]	IC50 [5] [µM]
Cc1cnc(-c2ccccc2C(C)C)nc1NCc1ccc(-n2ccnn2)cc1	> 114	> 114	> 114		
CC(=O)Oc1c2c(c(CC=C(C)C)c3c1C(=O)C1=C[C@@H]4CC5C(C)(C)OC(C/C=C(\C)C(=O)O)(C4=O)[C@@]15O3)OC(C)(CCC=C(C)C)C=C2 (stereo not given in full)	18.2	15.4	36.5	11.1	5.4
CC(=O)ON=C1C(=O)N(Cc2cc(Cl)ccc2Cl)c2ccc(Cl)cc21 [5-Chloro-1-[(2,5-dichlorophenyl)methyl]-1H-indole-2,3-dione 3-(O-acetyloxime)]		14.1	16.2		
CC1=C(O)C(=O)C=C2C1=CC=C1[C@@]2(C)CC[C@@]2(C)[C@@H]3C[C@](C)(C(=O)O)CC[C@]3(C)CC[C@]12C [Celastrol]	28.7	32.1	56.6	32.8	6.8
CO[C@H]1/C=C/O[C@@]2(C)Oc3c(C)c(O)c4c(c3C2=O)C(=O)/C(=C/NN2CCN(C)CC2)C(=C4O)NC(=O)/C(C)=C\C=C\[C@H](C)[C@H](O)[C@@H](C)[C@@H](O)[C@@H](C)[C@H](OC(C)=O)[C@@H]1C [Rifampicin]	21.2	24.8	62.8	46.1	19.5
